Source: publication PMC10399481, “Discovery and biological evaluation of novel CARM1/HDAC2 dual-targeting inhibitors with anti-prostate cancer agents” (Journal of Enzyme Inhibition and Medicinal Chemistry, 2023)
Entries after “also recorded” stand apart in the source; their conditions may differ. Like-named read-outs stand apart in the source and are kept apart here.

How the values were obtained:
[1] = tested on: DU145 cells; test: MTT cell growth assay, DU145; conditions: for inhibition at 1 µM: DU-145, read-out: DU145 (% inhibition rate, 1 μM)
Description: (§2) The American Type Culture Collection (ATCC) (Manassas, VA, USA) provided the human cancer cell lines including DU145, RM-1, LAPC4, 22RV1, and PC-3, which was then cultured in Dulbecco’s modified Eagle’s medium (DMEM) with 1% penicillin-streptomycin and 10% foetal bovine serum (FBS) in a humidified environment with 5% CO2 at 37 °C.
(§3) Based on the experimental method published previously, cell lines were prepared in cell suspension (5 × 10^4 cells/mL) and seeded into a 96-well plate[59].

[2] = tested on: 22RV1 cells; test: MTT cell growth assay, 22RV1; conditions: Homo sapiens, 22Rv1, 72 h, read-out: 22RV1 cell proliferation IC50
Description: as §2, §3

[3] = tested on: multiple prostate-related tumour cells (DU145, RM-1, LAPC4, 22RV1, PC-3); test: MTT cell growth assay, prostate cancer cell panel; conditions: Homo sapiens, read-out: anti-proliferative IC50 against prostate-related tumour cells
Description: as §2, §3

[4] = tested on: DU145 xenograft tumour; test: In vivo anticancer activity, DU145 xenograft; parameters: species or system BALB/c nude mice; conditions: 5, 10 and 20 mg/kg i.p., every four days, six times; dose-dependent
Description: The method of in vivo assay was described previously. We bought healthy female BALB/c nude mice from the animal experiment centre of Yangzhou University. All experiments involving animals were approved by the Animal Ethics Committee of China Pharmaceutical University. Mice were subcutaneously injected on the right flank with DU145 cells (200 µl, 1 × 10^7 cells). When tumour sizes reached 80–100 mm^3, mice were divided into four groups at random. Every four days for a total of six times, each group was injected intraperitoneally with the vehicle, CH-1 (5 mg/kg), CH-1 (10 mg/kg), and CH-1 (20 mg/kg). Tumour volume was measured every four days and calculated by the formula (c × c × d)/2 (c, the smallest diameter; d, the largest diameter).

[5] = tested on: RM-1 cells; test: MTT cell growth assay, RM-1; conditions: RM1, 72 h, read-out: RM-1 cell proliferation IC50
Description: as §2, §3

[6] = biological target: T1, CARM1 (Homo sapiens, UniProt Q86X55); test: In vitro CARM1 inhibition assay (3H-SAM, Flashplate); assay type: biochemical; conditions: 30 min preincubation, pH 7.5
T1 construct: purchased Abcam (Cambridge, MA, USA)
T1 sequence (Q86X55 1-608): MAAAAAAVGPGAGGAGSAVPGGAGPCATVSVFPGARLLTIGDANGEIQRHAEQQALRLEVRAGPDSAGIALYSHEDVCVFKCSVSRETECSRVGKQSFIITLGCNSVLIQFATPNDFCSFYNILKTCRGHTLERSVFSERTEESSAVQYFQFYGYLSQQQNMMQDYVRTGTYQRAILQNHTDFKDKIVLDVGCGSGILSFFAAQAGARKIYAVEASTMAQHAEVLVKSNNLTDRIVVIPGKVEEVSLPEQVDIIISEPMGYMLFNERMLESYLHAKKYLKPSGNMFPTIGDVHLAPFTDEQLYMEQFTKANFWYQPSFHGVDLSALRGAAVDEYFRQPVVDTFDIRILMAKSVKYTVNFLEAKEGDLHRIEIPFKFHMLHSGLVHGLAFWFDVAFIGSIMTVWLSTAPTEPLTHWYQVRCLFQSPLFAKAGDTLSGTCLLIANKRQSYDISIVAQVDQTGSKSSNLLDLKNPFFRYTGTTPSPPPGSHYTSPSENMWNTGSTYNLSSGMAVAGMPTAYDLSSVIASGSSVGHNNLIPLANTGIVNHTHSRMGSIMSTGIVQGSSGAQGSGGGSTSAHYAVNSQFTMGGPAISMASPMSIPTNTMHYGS
Description: (§1) Hit compounds were purchased from WuXi AppTec.
In vitro CARM1 inhibition assays were conducted as previously described. Before the reaction began, CARM1 was preincubated with compounds for 30 min at room temperature. […] Assay was performed at the condition of pH 7.5. The assay was quenched through the addition of 300 µM unlabelled SAM. The quantity of ^3H-labeled peptide produced was measured by Flashplate on a Topcount reader.

[7] = tested on: PC-3 cells; test: MTT cell growth assay, PC-3; conditions: Homo sapiens, PC-3, 72 h, read-out: PC-3 cell proliferation IC50
Description: The American Type Culture Collection (ATCC) (Manassas, VA, USA) provided the human cancer cell lines including DU145, RM-1, LAPC4, 22RV1, and PC-3, which was then cultured in Dulbecco’s modified Eagle’s medium (DMEM) with 1% penicillin-streptomycin and 10% foetal bovine serum (FBS) in a humidified environment with 5% CO2 at 37 °C. […] Hit compounds were purchased from WuXi AppTec.
as §3

[8] = tested on: LAPC4 cells; test: MTT cell growth assay, LAPC4; conditions: Homo sapiens, LAPC4, 72 h, read-out: LAPC4 cell proliferation IC50
Description: as §2, §3

[9] = biological target: T2, HDAC2 (Homo sapiens, UniProt Q92769); test: In vitro HDAC2 inhibition assay (Boc-Lys(acetyl)-AMC fluorogenic); assay type: biochemical
T2 construct: purchased Abcam (Cambridge, MA, USA)
Description: as §1
In vitro HDAC2 inhibition assays were performed as previously stated. Briefly, 50 µL of various concentrations of tested compounds were mixed with 10 µL of HDAC2 enzyme solution. After 5 min of 37 °C incubation, 40 µL of the luorogenic substrate Boc-Lys(acetyl)-AMC was added. The mixture was incubated at 37 °C for 30 min and stopped by adding 100 µL of developer containing trypsin and TSA. Then, fluorescence intensity was determined 20 min later at excitation and emission wavelengths of 390 and 460 nm, respectively, using a microplate reader. The IC50 values were determined by the GraphPad Prism 6 program based on a sigmoidal dose − response equation, and the inhibition rates were calculated using the fluorescence intensity readings of the tested wells in comparison to those of the control wells.

[10] = 37 °C, 30 min, read-out: HDAC2 (IC50)

T2 sequence (Q92769 whole entry): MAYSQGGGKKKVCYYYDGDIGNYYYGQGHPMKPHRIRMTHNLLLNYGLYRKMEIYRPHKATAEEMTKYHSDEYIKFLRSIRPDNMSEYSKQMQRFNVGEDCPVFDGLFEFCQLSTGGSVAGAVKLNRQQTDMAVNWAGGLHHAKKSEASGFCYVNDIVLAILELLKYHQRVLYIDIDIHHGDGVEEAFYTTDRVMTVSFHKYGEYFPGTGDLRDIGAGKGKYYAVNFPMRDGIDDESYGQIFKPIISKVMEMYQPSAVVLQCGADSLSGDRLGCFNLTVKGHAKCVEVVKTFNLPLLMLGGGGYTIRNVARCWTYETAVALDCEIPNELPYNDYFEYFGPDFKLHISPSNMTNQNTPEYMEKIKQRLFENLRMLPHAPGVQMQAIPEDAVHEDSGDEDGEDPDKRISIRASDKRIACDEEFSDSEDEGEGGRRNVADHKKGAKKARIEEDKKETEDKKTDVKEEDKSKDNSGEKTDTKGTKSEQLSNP

| SMILES | inhibition at 1 µM ([1]; Homo sapiens) [%] | IC50 [6] [nM] | IC50 [9, 10] [nM] | further results |
| --- | --- | --- | --- | --- |
| CNCCNCc1cccc(-c2nc(Nc3cccc(OCCCCCCC(=O)NO)c3)c(C)c(-c3ccnc4[nH]ccc34)n2)c1 [CH-1] | 97 | 3.71 ± 0.11 | – | IC50 ([1]; Homo sapiens, DU-145, 72 h, read-out: DU145 cell proliferation IC50): 90 nM; inhibitory activity on DU145 cells relative to vorinostat ([1]; ratio of IC50 values): five times stronger; IC50 [2]: 950 nM; IC50 [3]: < 1000 nM; tumour volume / tumour growth versus vehicle [4]: significantly inhibited tumour growth; also recorded: significantly reduced; also recorded: significant antitumour activity; IC50 [5]: 710 nM; IC50 [7]: 430 nM; IC50 [8]: 680 nM; IC50 [9]: 4.07 ± 0.25 nM |
| CNCCNCc1cccc(-c2nc(Nc3cccc(OCCCCCCC(=O)NO)c3)c(C)c(-c3c(C)noc3C)n2)c1 [CH-2] | 93 | 5.38 ± 0.54 | 8.33 ± 1.05 | – |
| CNCCNCc1cccc(-c2nc(Nc3cccc(OCCCCCCC(=O)NO)c3)c(C)c(-c3cccnc3)n2)c1 [CH-3] | 96 | 10.6 ± 0.93 | 5.83 ± 0.41 | – |
| CNCCNCc1cccc(-c2nc(Nc3cccc(OCCCCCCC(=O)NO)c3)c(C)c(-c3cc4cccc(OC)c4[nH]3)n2)c1 [CH-4] | 92 | 25.5 ± 1.12 | 9.18 ± 0.17 | – |
| CNCCNCc1cccc(-c2nc(Nc3cccc(OCCCCCCC(=O)NO)c3)c(C)c(-c3cc4ccccc4s3)n2)c1 [CH-5] | 85 | 30.1 ± 2.02 | 17.3 ± 1.96 | – |
| CNCCNCc1cccc(-c2nc(Cl)c(C)c(Nc3cccc(OCCCCCCC(=O)NO)c3)n2)c1 [CH-6] | 86 | 37.4 ± 1.65 | 13 ± 1.25 | – |
| CNCCNCc1cccc(-c2nc(Nc3cccc(OCCCCCCC(=O)NO)c3)c(C)c(Oc3ccccc3)n2)c1 [CH-7] | 81 | 58.5 ± 3.21 | 24.8 ± 1.53 | – |
| CNC[C@@H](O)COc1ccc(Cl)c(-c2nc(-c3c(C)noc3C)c(C)c(N3CC4(CCN(C(=O)OC)CC4)C3)n2)c1 [EZM2302, reference compound] | < 50 | – | – | HDAC2 (IC50, nM) ([9]; 37 °C, 30 min): no inhibition |
| O=C(CCCCCCC(=O)Nc1ccccc1)NO [vorinostat, reference compound] | – | – | – | CARM1 (IC50, nM) [6]: no inhibitory effect; also recorded: no inhibition |
